Experimental findings from patent publication US20100068208A1, “Degranulation inhibitor” (priority 2005, published 2010) are described below.

One test deals with TGR12. Format: cell-based, human. The method, then: CHO/dhfr^− cells (hereinafter CHO) were incubated in α-MEM (Invitrogen) supplemented with 10% fetal calf serum. After a termination codon in the TGR12-encoding nucleotide sequence was removed, a nucleotide sequence ligated with the nucleotide sequence encoding GFP (Wako Pure Chemical) [hereinafter briefly referred to as TGR12-GFP (DNA having the nucleotide sequence represented by SEQ ID NO: 31)] was incorporated into vector plasmid pAKKO-111H (the same vector plasmid as pAKKO1.11H described in Biochim. Biophys. Acta, 1219, 251-259 (1994)) for animal cell expression, and the vector plasmid was stably expressed to establish TGR12-GFP-expressed CHO cell line (hereinafter CHO-TGR12). CHO-TGR12 was incubated in nucleic acid-free α-MEM medium (Invitrogen) containing 10% dialyzed fetal calf serum.
CHO-TGR12 was plated in a 96-well plate at a density of 30,000 cells/well. After incubation overnight, the medium was discarded and 100 μL/well of assay buffer [Hank's Balanced Salt Solution (Invitrogen), 20 mM HEPES (Dojin Chemical Laboratory) and 2.5 mM Probenecid (Sigma)] containing 4 μM Fluo3-AM (Dojin Chemical Laboratory) was added, which was then allowed to stand for an hour at 37° C. […] After the cells were washed with assay buffer, fluorescence reflecting changes in intracellular calcium levels was assayed on FLIPR (Molecular Device). Ten seconds after initiation of the assay, 50 μL of a sample was added at a rate of 50 μL/second. Fluorescence measurement was taken every 1 second during the first 60 seconds and then every 6 seconds during the next 120 seconds; the highest fluorescence intensity over a 3 minute period was taken as the maximum activity under the stimulation condition, representing the mean value of 3 wells. The EC50 values were determined using Graphpad PRISM 4 (Graphpad Software).

Another test has as its system RBL-2H3. Kind of test: Intracellular calcium increasing activity in RBL2H3 (FLIPR). The settings on record: RBL2H3, 1 μM. Format: cell-based. The method, then:
(§1) RBL-2H3 (hereinafter RBL2H3) was incubated in α-MEM (Invitrogen) supplemented with 10% fetal calf serum. Vector plasmid pcDNA3.1 for animal cell expression, in which the nucleotide sequence containing the initiation codon to the termination codon of human TGR12 (DNA having the nucleotide sequence represented by SEQ ID NO: 32) was incorporated, was stably expressed in RBL-2H3 to establish human TGR12-expressed RBL-2H3 cell line (hereinafter RBL2H3-TGR12). RBL2H3-TGR12 was incubated in α-MEM (Invitrogen) supplemented with 10% fetal calf serum and 200 μg/mL of Geneticin.
(§2) The intracellular calcium increasing activity was assayed as follows. RBL2H3 and RBL2H3-TGR12 were plated in a 96-well plate at a density of 40,000 cells/well and incubated overnight. The medium was then discarded and 100 μL/well of 4 μM Fluo3-AM (Dojin Kagaku)-containing assay buffer [Hank's Balanced Salt Solution (Invitrogen), 20 mM HEPES (Dojin Kagaku) and 2.5 mM Probenecid (Sigma)] was added. The mixture was allowed to stand for an hour at 37° C. Various TGR12 (Peptide Institute, Inc.) or calcium ionophore A23187 (Wako Pure Chemical) was diluted in 0.05% CHAPS-containing assay buffer. After the cells were washed with the assay buffer, fluorescence emitted with changes in intracellular calcium was measured using FLIPR (Molecular Device). A sample, 50 μL, was added at a rate of 50 μL/sec. 10 seconds after initiation of the assay. Fluorescence was measured every 1 second during the first 60 seconds and every 6 seconds during the next 120 seconds. The highest fluorescence intensity during 3 minutes was made the maximum activity under the stimulation conditions, which was taken as an average of 3 wells. The EC50 values were calculated using Graphpad PRISM 4 (Graphpad Software).

The target in the next test is T1, human TGR12 (Homo sapiens, UniProt Q96LB1).
T1 construct: expressed in transfected cells
T1 sequence (Q96LB1 1-330): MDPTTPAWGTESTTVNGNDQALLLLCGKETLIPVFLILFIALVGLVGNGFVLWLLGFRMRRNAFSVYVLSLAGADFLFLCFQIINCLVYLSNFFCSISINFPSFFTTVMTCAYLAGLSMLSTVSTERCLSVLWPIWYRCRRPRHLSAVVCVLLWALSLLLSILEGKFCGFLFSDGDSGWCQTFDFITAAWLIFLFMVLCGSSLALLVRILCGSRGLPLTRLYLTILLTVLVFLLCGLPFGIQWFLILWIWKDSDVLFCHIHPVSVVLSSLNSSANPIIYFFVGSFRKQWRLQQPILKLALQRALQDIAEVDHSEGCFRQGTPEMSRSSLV
Kind of test: Intracellular calcium increasing activity in RBL2H3-TGR12 (FLIPR). Format: cell-based. The conditions noted are these: RBL2H3-TGR12, 1 μM. The procedure: as §1, §2

For test [1], the system named is human mast cell line LAD 2. Put plainly: Effect of NK1 receptor antagonists on substance P- or A23187-induced degranulation of LAD 2. It is filed as cell-based. The procedure: Subsequently, Tyrode's buffer containing 50 μL of NK1 antagonist GR-82334 (Sigma, Inc.) in various concentrations or L-703606 (Sigma, Inc.) was added and incubation was continued at 37° C. for 5 minutes. […] Next, 0.2 M glycine/NaCO3 (pH 10.7) was added in a volume of 0.1-fold of the reaction solution to stop the reaction. The activity was then assayed using Fusion-α (Perkin-Elmer). […] The inhibition activity by the NK1 receptor antagonist was expressed as the percentage of the β-hexosaminidase activity when the NK1 antagonist was added in various concentrations, based on the β-hexosaminidase activity when no NK1 antagonist was added.

Test [2] deals with human mast cell line LAD 2. Kind of test: TGR12 ligand-dependent degranulation of LAD 2 (β-hexosaminidase release). It is filed as cell-based.
Protocol: Human mast cell line LAD 2 was incubated in StemPro-34 medium (Invitrogen) supplemented with 100 ng/mL of stem cell factor (Immuno-Biological Laboratories Co., Ltd.). […] Subsequently, Tyrode's buffer containing 50 μL of TGR12 ligand (Peptide Institute, Inc.) in various concentrations was added and incubation was continued at 37° C. for further 20 minutes to induce degranulation. The degree of degranulation was determined by assaying the β-hexosaminidase activity in the degranulation assay supernatant as given below. The supernatant was dispensed into a 96-well plate and 0.1M citrate (pH 4.5)/1 mM 4-methyl umbelliferyl-2-acetamido-2-deoxy-beta-D-glucopyranoside (Wako Pure Chemical) in 5-fold of the supernatant was added thereto, followed by incubation at 37° C. for an hour. […] The activity was then assayed using Fusion-α (Perkin-Elmer). The β-hexosaminidase activity was also shown by the activity in the supernatant obtained by centrifugation after freezing and thawing LAD 2 four times, which was made total β-hexosaminidase activity in LAD 2, and the degree of degranulation was shown as the percentage of the β-hexosaminidase activity in the LAD 2 supernatant based on the total β-hexosaminidase activity.
Another test has as its target T2, human TGR12 (untagged) (human, UniProt Q96LB1 1-330).
T2 sequence: T1 sequence (Q96LB1 1-330)
Put plainly: cell-based or functional assay.

Test [3] deals with T3, TGR12-GFP (fused protein of human TGR12 and GFP, encoded by the DNA of SEQ ID NO: 31), stably expressed on … (human, UniProt Q96LB1 1-330).
T3 sequence: T1 sequence (Q96LB1 1-330)
Kind of test: cell-based or functional assay.

Where two headings read alike, the source gives them in different places. Where no end group is shown, it is not given here.

`CNc1ccc2oc(C[C@H]3O[C@@]4(CC[C@H]3C)O[C@H]([C@H](C)C(=O)c3ccc[nH]3)[C@H](C)C[C@H]4C)nc2c1C(=O)O` [A23187]: the “maximum activity in the calcium increasing effect” value with TGR12 (CHO-TGR12, 1 μM) worked out at 27379; in the test with RBL-2H3, 25338; at human TGR12 it was 25624.
On to `Ic1ccccc1CN[C@@H]1C2CCN(CC2)[C@@H]1C(c1ccccc1)c1ccccc1` [L-703606], for which the “degranulation, % of β-hexosaminidase activity without NK1 antagonist” value in test [1] (A23187 stimulation 0.3 μM, antagonist 100 nM) is recorded as 98.4%; in test [1] (A23187 stimulation 0.3 μM, antagonist 300 nM), 97.2%; in test [1] (A23187 stimulation 0.3 μM, antagonist 1 μM) it was 97.4%; in test [1] (A23187 stimulation 0.3 μM, antagonist 3 μM) it was 91.5%; in test [1] (A23187 stimulation 0.3 μM, antagonist 10 μM), 37.1%; in test [1] (A23187 stimulation 0.3 μM, antagonist 30 μM), 2.4%. Moreover, the “degranulation, % of β-hexosaminidase activity without NK1 antagonist” value in test [1] (substance P stimulation 0.3 μM, antagonist 100 nM) is reported as 101.1%; in test [1] (substance P stimulation 0.3 μM, antagonist 300 nM), 97.9%; in test [1] (substance P stimulation 0.3 μM, antagonist 1 μM), 98.8%; in test [1] (substance P stimulation 0.3 μM, antagonist 3 μM) it was 100.0%; in test [1] (substance P stimulation 0.3 μM, antagonist 10 μM) it was 39.4%; in test [1] (substance P stimulation 0.3 μM, antagonist 30 μM), 3.2%. For the same molecule, the “inhibition of the degranulation by the substance P and A23187 stimulation” value in test [1] (concentration range of 3 μM) is listed as “did not inhibit”; in test [1] (concentration range of 10 μM to 30 μM, non-specifically to TGR12 and NK1 receptor), “inhibited”.
One may read the EC50 as the midpoint of the concentration-response curve. `CC[C@H](C)[C@H](NC(=O)CNC(=O)[C@H](CC(=O)O)NC(=O)[C@H](CO)NC(=O)[C@@H](N)Cc1c[nH]cn1)C(=O)N[C@@H](Cc1ccccc1)C(=O)N[C@H](C(=O)N[C@@H](CC(=O)O)C(=O)N[C@@H](CO)C(=O)N[C@@H](Cc1ccc(O)cc1)C(=O)N[C@@H](CO)C(=O)N[C@@H](CCCNC(=N)N)C(=O)N[C@@H](Cc1ccc(O)cc1)C(=O)N[C@@H](CCCNC(=N)N)C(=O)N[C@@H](CCCCN)C(=O)N[C@@H](CCC(N)=O)C(=O)N[C@@H](CCSC)C(=O)N[C@@H](C)C(=O)N[C@H](C(=O)N[C@@H](CCCCN)C(=O)N[C@@H](CCCCN)C(=O)N[C@@H](Cc1ccc(O)cc1)C(=O)N[C@@H](CC(C)C)C(=O)N[C@@H](C)C(=O)N[C@@H](C)C(=O)N[C@H](C(=O)N[C@@H](CC(C)C)C(=O)NCC(=O)N[C@@H](CCCCN)C(=O)N[C@@H](CCCNC(=N)N)C(=O)N[C@@H](Cc1ccc(O)cc1)C(=O)N[C@@H](CCCCN)C(=O)N[C@@H](CCC(N)=O)C(=O)N[C@@H](CCCNC(=N)N)C(=O)N[C@H](C(=O)N[C@@H](CCCCN)C(=O)N[C@@H](CC(N)=O)C(=O)N[C@@H](CCCCN)C(N)=O)C(C)C)C(C)C)C(C)C)[C@@H](C)O` [PACAP-38]: the “maximum activity in the calcium increasing effect” value turned out to be 287 with TGR12 (CHO-TGR12, 0.3 nM, highest fluorescence intensity over 3 minutes); 410 in the test with TGR12 (CHO-TGR12, 3 nM); 195 in the test on TGR12 (CHO-TGR12, 30 nM); 23043 in the test on TGR12 (CHO-TGR12, 300 nM); 23315 in the test with TGR12 (CHO-TGR12, 3000 nM). Moreover, the EC50 is ~161 nM in the test on TGR12 (CHO-TGR12, read-out: EC50 in the calcium increasing effect on CHO-TGR12) and ~51 nM in test [2] (LAD 2, read-out: EC50 in the degranulation on LAD 2). Besides, the “stimulated degranulation (β-hexosaminidase in supernatant, % of total)” value in test [2] (LAD 2, 10 nM) is 7.4%; in test [2] (LAD 2, 30 nM), 24.8%; in test [2] (LAD 2, 100 nM), 49.4%; in test [2] (LAD 2, 300 nM), 65.8%; in test [2] (LAD 2, 1 μM) it was 68.9%; in test [2] (LAD 2, 3 μM) it was 63.3%.
With DRMPCRNFFWKTFSSCK (peptide, UniProt O00230 89-105, looked up, not fully specified; ends and bridges not checked) [human cortistatin-17], in the test with human TGR12 (untagged), the “degranulation of LAD 2 (beta-hexosaminidase release, % of total) at 10 nM” value amounted to 1.6%; the “degranulation of LAD 2 (beta-hexosaminidase release, % of total) at 30 nM” value was 2.8%; the “degranulation of LAD 2 (beta-hexosaminidase release, % of total) at 100 nM” value is 26.5%; the “degranulation of LAD 2 (beta-hexosaminidase release, % of total) at 300 nM” value was determined as 52.8%. In the test with human TGR12 (untagged), the “degranulation of LAD 2 (beta-hexosaminidase release, % of total) at 1 µM” value came out at 62.2%; the “degranulation of LAD 2 (beta-hexosaminidase release, % of total) at 3 µM” value amounted to 58.9%; the “maximum activity in the calcium increasing effect (FLIPR), RBL2H3-TGR12, at 1 nM” value is -2 fluorescence intensity; the “maximum activity in the calcium increasing effect (FLIPR), RBL2H3-TGR12, at 10 nM” value came to 33 fluorescence intensity. In addition, in the test with human TGR12 (untagged), the “maximum activity in the calcium increasing effect (FLIPR), RBL2H3-TGR12, at 100 nM” value was 1570 fluorescence intensity; the “maximum activity in the calcium increasing effect (FLIPR), RBL2H3-TGR12, at 1 µM” value came to 11200 fluorescence intensity; the “maximum activity in the calcium increasing effect (FLIPR), RBL2H3-TGR12, at 10 µM” value worked out at 12800 fluorescence intensity. In test [3], the “maximum activity in the calcium increasing effect (FLIPR), CHO-TGR12, at 0.3 nM” value amounted to 67 fluorescence intensity; the “maximum activity in the calcium increasing effect (FLIPR), CHO-TGR12, at 3 nM” value stood at 54 fluorescence intensity; the “maximum activity in the calcium increasing effect (FLIPR), CHO-TGR12, at 30 nM” value was 94 fluorescence intensity; the “maximum activity in the calcium increasing effect (FLIPR), CHO-TGR12, at 300 nM” value was determined as 17900 fluorescence intensity. Besides, the “maximum activity in the calcium increasing effect (FLIPR), CHO-TGR12, at 3000 nM” value in test [3] worked out at 23600 fluorescence intensity.
